Data published in article PMC11189555, “Aryl amino acetamides prevent Plasmodium falciparum ring development via targeting the lipid-transfer protein PfSTART1” (Nature Communications, 2024).
pEC50: −log10 of the molar value.

Tests used:
[1] = system: PopD-D7 M-833 resistant clone (PfSTART1 N309K); assay: Growth inhibition assay (72 h, LDH activity); type: cell-based, Plasmodium falciparum; conditions: for (av-uRBC) / (DMSO-uRBC) x100: PopD-D7
Method: (§1) The drug was then removed, and parasites were allowed to recover. Another cycle of drug treatment (3 μM M-833) was then resumed. The resistant lines were cloned out by limiting dilution (diluting the culture into a 96-well plate to achieve an average of ~0.3 parasites per well), prior to growth inhibition assays and genomic DNA (gDNA) extraction (DNeasy Blood and Tissue kit (Qiagen)[18].
(§2) Parasite growth assays with inhibitory compounds were performed as per[11] and are fully described in the Supplementary Information. […]
(§3) Growth inhibition assays. Synchronised ring-stage parasites (0.3-0.6% parasitemia, 2% haematocrit) were grown for 72 h in a serial-dilution of the compound under […]
(§4) and compound 4. Note that M-833 was first purchased from MolPort (MolPort -002-267-916) then made in-house at WEHI: the differences observed in EC50s across experiments are attributed to the different batches of M -833. For some experiments, 0, 0.25 or 2.5 mM of glucosamine (GlcN) was also added. Experiments were set up in technical duplicates or triplicates. Following a freeze -thaw cycle, lactate dehydrogenase (LDH) activity was assessed as an indicator of parasite growt h 5. 30 μL of parasite culture was incubated for 30 min in the dark with 75 μL Malstat mixture (0.1 M Tris pH 9.0, 20 g/L lactic acid, pH 7.5, 0.2% Triton-X100, 0.5 g/L acetylpyridine adenine dinucleotide (APAD, Sigma), 200 μg/mL nitroblue tetrazolium (NBT; Sigma), 1 μg/mL phenozine ethosulfate (PES; Sigma)). Absorbance was then measured at 650 nm, transformed using the formula below, plotted against the logarithm of the concentrations, and a non-linear regression (log(inhibitor) vs. response, variable slope) was calculated using GraphPad Prism to assess the half-inhibitory […]
(§5) Growth inhibition % = (1 − average(sample)− average(uRBC)) ∗ 100 […]
(§6) The DMSO samples were also used to assess growth of parasite in the presence of 0.25 and 2.5 mM GlcN (normalised by DMSO in 0 mM GlcN). […]

[2] = system: PopE-F10 M-833 resistant clone (PfSTART1 N330K); assay: Growth inhibition assay (72 h, LDH activity); type: cell-based, Plasmodium falciparum
Method: as §1, §2, §3, §4, §5, §6

Structure (SMILES): O=C(CNc1ccc(Cl)c(S(=O)(=O)N2CCOCC2)c1)Nc1ccc(F)c(Cl)c1 [compound 2, reference compound]
- pEC50 ([1]; Plasmodium falciparum, Supplementary Table 1, PopD-D7 (N309K), 72 h, read-out: EC50): < 4.70
- resistance of the line compared with 3D7 ([1]; PopD-D7 (N309K), Fig 4B): highly resistant
- (av-uRBC) / (DMSO-uRBC) x100 ([1]; conc. 3.04832 nM, Biological replicate 1 (2021-10-25)): 108.297
- (av-uRBC) / (DMSO-uRBC) x100 ([1]; conc. 3.04832 nM, Biological replicate 2 (2021-11-03)): 110.746
- (av-uRBC) / (DMSO-uRBC) x100 ([1]; conc. 3.04832 nM, Biological replicate 3 (2021-11-11)): 101.173
- (av-uRBC) / (DMSO-uRBC) x100 ([1]; conc. 9.14495 nM, Biological replicate 1 (2021-10-25)): 111.853
- (av-uRBC) / (DMSO-uRBC) x100 ([1]; conc. 9.14495 nM, Biological replicate 2 (2021-11-03)): 111.153
- (av-uRBC) / (DMSO-uRBC) x100 ([1]; conc. 9.14495 nM, Biological replicate 3 (2021-11-11)): 114.836
- (av-uRBC) / (DMSO-uRBC) x100 ([1]; conc. 27.4348 nM, Biological replicate 1 (2021-10-25)): 111.176
- (av-uRBC) / (DMSO-uRBC) x100 ([1]; conc. 27.4348 nM, Biological replicate 2 (2021-11-03)): 111.76
- (av-uRBC) / (DMSO-uRBC) x100 ([1]; conc. 27.4348 nM, Biological replicate 3 (2021-11-11)): 128.575
- (av-uRBC) / (DMSO-uRBC) x100 ([1]; conc. 82.3045 nM, Biological replicate 1 (2021-10-25)): 109.097
- (av-uRBC) / (DMSO-uRBC) x100 ([1]; conc. 82.3045 nM, Biological replicate 2 (2021-11-03)): 114.254
- (av-uRBC) / (DMSO-uRBC) x100 ([1]; conc. 82.3045 nM, Biological replicate 3 (2021-11-11)): 124.242
- (av-uRBC) / (DMSO-uRBC) x100 ([1]; conc. 246.914 nM, Biological replicate 1 (2021-10-25)): 110.536
- (av-uRBC) / (DMSO-uRBC) x100 ([1]; conc. 246.914 nM, Biological replicate 2 (2021-11-03)): 113.933
- (av-uRBC) / (DMSO-uRBC) x100 ([1]; conc. 246.914 nM, Biological replicate 3 (2021-11-11)): 129.518
- (av-uRBC) / (DMSO-uRBC) x100 ([1]; conc. 740.741 nM, Biological replicate 1 (2021-10-25)): 106.002
- (av-uRBC) / (DMSO-uRBC) x100 ([1]; conc. 740.741 nM, Biological replicate 2 (2021-11-03)): 112.781
- (av-uRBC) / (DMSO-uRBC) x100 ([1]; conc. 740.741 nM, Biological replicate 3 (2021-11-11)): 117.002
- (av-uRBC) / (DMSO-uRBC) x100 ([1]; conc. 2222.22 nM, Biological replicate 1 (2021-10-25)): 103.716
- (av-uRBC) / (DMSO-uRBC) x100 ([1]; conc. 2222.22 nM, Biological replicate 2 (2021-11-03)): 111.361
- (av-uRBC) / (DMSO-uRBC) x100 ([1]; conc. 2222.22 nM, Biological replicate 3 (2021-11-11)): 123.604
- (av-uRBC) / (DMSO-uRBC) x100 ([1]; conc. 6666.67 nM, Biological replicate 1 (2021-10-25)): 102.822
- (av-uRBC) / (DMSO-uRBC) x100 ([1]; conc. 6666.67 nM, Biological replicate 2 (2021-11-03)): 107.742
- (av-uRBC) / (DMSO-uRBC) x100 ([1]; conc. 6666.67 nM, Biological replicate 3 (2021-11-11)): 113.943
- (av-uRBC) / (DMSO-uRBC) x100 ([1]; conc. 20000 nM, Biological replicate 1 (2021-10-25)): 68.9276
- (av-uRBC) / (DMSO-uRBC) x100 ([1]; conc. 20000 nM, Biological replicate 2 (2021-11-03)): 85.5559
- (av-uRBC) / (DMSO-uRBC) x100 ([1]; conc. 20000 nM, Biological replicate 3 (2021-11-11)): 59.2149
- Fold change compared to 3D7 ([1]; Supplementary Table 1, EC50 on PopD-D7 vs 3D7): > 117 fold
- pEC50 ([2]; Plasmodium falciparum, 72 h, Supplementary Table 1, PopE-F10 (N330K)): < 4.70
- resistance of the line compared with 3D7 ([2]; PopE-F10 (N330K), Fig 4B): highly resistant
- (av-uRBC) / (DMSO-uRBC) x100 ([2]; PopE-F10, 3.04832 nM, biological replicate 1): 114.401
- (av-uRBC) / (DMSO-uRBC) x100 ([2]; PopE-F10, 3.04832 nM, biological replicate 2): 112.198
- (av-uRBC) / (DMSO-uRBC) x100 ([2]; PopE-F10, 3.04832 nM, biological replicate 3): 118.159
- (av-uRBC) / (DMSO-uRBC) x100 ([2]; PopE-F10, 9.14495 nM, biological replicate 1): 113.83
- (av-uRBC) / (DMSO-uRBC) x100 ([2]; PopE-F10, 9.14495 nM, biological replicate 2): 112.634
- (av-uRBC) / (DMSO-uRBC) x100 ([2]; PopE-F10, 9.14495 nM, biological replicate 3): 115.839
- (av-uRBC) / (DMSO-uRBC) x100 ([2]; PopE-F10, 27.4348 nM, biological replicate 1): 109.84
- (av-uRBC) / (DMSO-uRBC) x100 ([2]; PopE-F10, 27.4348 nM, biological replicate 2): 113.332
- (av-uRBC) / (DMSO-uRBC) x100 ([2]; PopE-F10, 27.4348 nM, biological replicate 3): 126.539
- (av-uRBC) / (DMSO-uRBC) x100 ([2]; PopE-F10, 82.3045 nM, biological replicate 1): 112.064
- (av-uRBC) / (DMSO-uRBC) x100 ([2]; PopE-F10, 82.3045 nM, biological replicate 2): 115.064
- (av-uRBC) / (DMSO-uRBC) x100 ([2]; PopE-F10, 82.3045 nM, biological replicate 3): 112.119
- (av-uRBC) / (DMSO-uRBC) x100 ([2]; PopE-F10, 246.914 nM, biological replicate 1): 108.998
- (av-uRBC) / (DMSO-uRBC) x100 ([2]; PopE-F10, 246.914 nM, biological replicate 2): 111.627
- (av-uRBC) / (DMSO-uRBC) x100 ([2]; PopE-F10, 246.914 nM, biological replicate 3): 122.435
- (av-uRBC) / (DMSO-uRBC) x100 ([2]; PopE-F10, 740.741 nM, biological replicate 1): 107.242
- (av-uRBC) / (DMSO-uRBC) x100 ([2]; PopE-F10, 740.741 nM, biological replicate 2): 111.201
- (av-uRBC) / (DMSO-uRBC) x100 ([2]; PopE-F10, 740.741 nM, biological replicate 3): 127.133
- (av-uRBC) / (DMSO-uRBC) x100 ([2]; PopE-F10, 2222.22 nM, biological replicate 1): 102.224
- (av-uRBC) / (DMSO-uRBC) x100 ([2]; PopE-F10, 2222.22 nM, biological replicate 2): 112.371
- (av-uRBC) / (DMSO-uRBC) x100 ([2]; PopE-F10, 2222.22 nM, biological replicate 3): 122.627
- (av-uRBC) / (DMSO-uRBC) x100 ([2]; PopE-F10, 6666.67 nM, biological replicate 1): 102.39
- (av-uRBC) / (DMSO-uRBC) x100 ([2]; PopE-F10, 6666.67 nM, biological replicate 2): 105.46
- (av-uRBC) / (DMSO-uRBC) x100 ([2]; PopE-F10, 6666.67 nM, biological replicate 3): 111.965
- (av-uRBC) / (DMSO-uRBC) x100 ([2]; PopE-F10, 20000 nM, biological replicate 1): 70.532
- (av-uRBC) / (DMSO-uRBC) x100 ([2]; PopE-F10, 20000 nM, biological replicate 2): 73.7076
- (av-uRBC) / (DMSO-uRBC) x100 ([2]; PopE-F10, 20000 nM, biological replicate 3): 50.604
- Fold change compared to 3D7 ([2]; Supplementary Table 1, EC50 on PopE-F10 vs 3D7): > 117 fold
